According to article PMC7215599, “Synthesis, Antitumor Evaluation, Molecular Modeling and Quantitative Structure–Activity Relationship (QSAR) of Novel 2-[(4-Amino-6-N-substituted-1,3,5-triazin-2-yl)methylthio]-4-chloro-5-methyl-N-(1H-benzo[d]imidazol-2(3H)-ylidene)Benzenesulfonamides” (International Journal of Molecular Sciences, 2020):

Assays:
[1] = test system: HCT-116 (colon cancer) cell line; assay: MTT cell viability assay, HCT-116; type: cell-based, human; details: Homo sapiens, HCT-116, 72 h, MTT, 72 h, 1-100 µM, mean ± SD
[2] = test system: MCF-7 (breast cancer) cell line; assay: MTT cell viability assay, MCF-7; type: cell-based, human; details: Homo sapiens, MCF7, 72 h, MTT, 72 h, 1-100 µM, mean ± SD
[3] = test system: HeLa (cervical cancer) cell line; assay: MTT cell viability assay, HeLa; type: cell-based, human; details: Homo sapiens, HeLa, 72 h, MTT, 1-100 µM, mean ± SD
[4] = test system: HaCaT (non-cancerous keratinocyte cell line); assay: MTT cell viability assay, HaCaT; type: cell-based; details: Homo sapiens, 72 h, 1-100 µM, mean ± SD, non-cancerous cells
[5] = test system: HCT-116, MCF-7 and HeLa cell lines; assay: MTT cell viability assay, all tested cancer cell lines taken together; type: cell-based; details: Homo sapiens; range over HCT-116, MCF-7 and HeLa; read-out: IC50 toward all of the tested cell lines (range over the lines)
Description: Compounds 6–49 were evaluated in vitro for their effects on the viability of the three human cancer cell lines: HCT-116 (colon cancer), MCF-7 (breast cancer) and HeLa (cervical cancer) as well as the non-cancerous keratinocyte cell line (HaCaT). The concentration required for 50% inhibition of cell viability IC50 was calculated and compared with the reference drug cisplatin, the results are shown in Table 1.
Cell lines: colon cancer (HCT-116), breast cancer (MCF-7), cervical cancer (HeLa), the human keratinocyte cell line (HaCaT); NT—not tested; IC50 was measured at concentrations 1, 10, 25, 50, and 100 µM. IC50 values are expressed as the mean ± SD of at last three independent experiments.
All chemicals, if not stated otherwise, were obtained from Sigma–Aldrich (St. Louis, MO, USA). The HCT-116 cell lines was purchased from ATCC (ATCC-No: CCL-247), while the MCF-7, HeLa and HaCaT cell lines were purchased from Cell Lines Services (Eppelheim, Germany). Cells were cultured in Dulbecco’s modified Eagle’s medium (DMEM) supplemented with 10% fetal bovine serum, 2 mM glutamine, 100 units/mL penicillin, and 100 µg/mL streptomycin. Cultures were maintained in a humidified atmosphere with 5% carbon dioxide at 37 °C in an incubator (Heraceus, HeraCell).
Cell viability was examined using the MTT (3-(4,5-dimethylthiazol-2-yl)-2,5-diphenyltetrazolium bromide) assay. Cells were seeded in 96-well plates at a density of 5 × 10^3 cells/well and treated for 72 h with the tested compounds in the concentration range of 1–100 µM (1, 10, 25, 50 and 100 µM). Then, MTT (0.5 mg/mL) was added to the medium and cells were further incubated for 2 h at 37 °C. In the next stage, cells were lysed with DMSO and the absorbance of the formazan solution was measured at 550 nm with a plate reader (1420 multilabel counter, Victor, Jügesheim, Germany). The experiment was performed in triplicate. Values are expressed as the mean ± SD of at least three independent experiments. Cisplatin was used as a positive control.

SMILES	IC50 [1]	IC50 [2]	IC50 [3]	IC50 [4]	IC50 [5]
Cc1cc(S(=O)(=O)N=c2[nH]c3ccc(Cl)cc3[nH]2)c(SCc2nc(N)nc(Nc3ccccc3)n2)cc1Cl [Compound 42, 2-{[4-Amino-6-(phenylamino)-1,3,5-triazin-2-yl]methylthio}-4-chloro-N-(5-chloro-1H-benzo[d]imidazol-2(3H)-ylidene)-5-methylbenzenesulfonamide]	18 ± 1 µM	23 ± 1 µM	24 ± 1 µM	37 ± 1 µM	17 to 30 µM
Cc1cc(S(=O)(=O)N=c2[nH]c3ccc(F)cc3[nH]2)c(SCc2nc(N)nc(N3CCc4ccccc43)n2)cc1Cl [Compound 34, 2-{[4-Amino-6-(indolin-1-yl)-1,3,5-triazin-2-yl]metylthio}-4-chloro-N-(5-fluoro-1H-benzo[d]imidazol-2(3H)-ylidene)-5-methylbenzenesulfonamide]	17 ± 1 µM	25 ± 1 µM	30 ± 1 µM	41 ± 1 µM	17 to 30 µM
Cc1cc(S(=O)(=O)N=c2[nH]c3ccccc3[nH]2)c(SCc2nc(N)nc(N3CCN(c4ccc(F)cc4)CC3)n2)cc1Cl [Compound 20, 2-[{4-Amino-6-[4-(4-fluorophenyl)piperazin-1-yl]-1,3,5-triazin-2-yl}methylthio]-N-(1H-benzo[d]imidazol-2(3H)-ylidene)-4-chloro-5-methylbenzenesulfonamide]	16 ± 0.5 µM	17 ± 0.5 µM	17 ± 1 µM	35 ± 1 µM	7 to 19 µM
Cc1cc(S(=O)(=O)N=c2[nH]c3ccccc3[nH]2)c(SCc2nc(N)nc(N3CCc4ccccc43)n2)cc1Cl [Compound 9, 2-{[4-Amino-6-(indolin-1-yl)-1,3,5-triazin-2-yl]metylthio}-N-(1H-benzo[d]imidazol-2(3H)-ylidene)-4-chloro-5-methylbenzenesulfonamide]	25 ± 1 µM	20 ± 1 µM	23 ± 1 µM	42 ± 2 µM	17 to 30 µM
